# According to article PMC5552351, “Bacteriological profiling of diphenylureas as a novel class of antibiotics against methicillin-resistant Staphylococcus aureus” (PLoS ONE, 2017):
# Tests used:
# [1] = tested on: MRSA NRS123 (USA400); experiment: broth microdilution MIC/MBC; type: cell-based; settings: Staphylococcus aureus, MRSA NRS123 (USA400); for MBC: read-out: MBC; for MIC: read-out: MIC
# Protocol: (§1) The broth microdilution assay was employed to determine the MIC of compounds 1, 2, and vancomycin against five MRSA strains, four VRSA strains, one highly mupirocin-resistant S. aureus strain, one biofilm-forming S. aureus (ATCC 6538) strain, and one biofilm-forming methicillin-resistant S. epidermidis strain, as per the guidelines of the Clinical and Laboratory Standards Institute (CLSI). […] The MBC was determined by plating an aliquot (5 μL) from wells with no growth onto TSA plates. Plates were incubated at 37 °C for 19 hours before recording the MBC (concentration where no growth was observed on TSA plates).
# [2] = tested on: MRSA NRS384 (USA300); experiment: broth microdilution MIC/MBC; type: cell-based; settings: Staphylococcus aureus, MRSA NRS384 (USA300); for MBC: read-out: MBC; for MIC: read-out: MIC
# Protocol: as §1
# [3] = tested on: MRSA NRS387 (USA800); experiment: broth microdilution MIC/MBC; type: cell-based; settings: Staphylococcus aureus, MRSA NRS387 (USA800); for MBC: read-out: MBC; for MIC: read-out: MIC
# Protocol: as §1
# [4] = tested on: MRSA NRS483 (USA1000); experiment: broth microdilution MIC/MBC; type: cell-based; settings: Staphylococcus aureus, MRSA NRS483 (USA1000); for MBC: read-out: MBC; for MIC: read-out: MIC
# Protocol: as §1
# [5] = tested on: MRSA NRS484 (USA1100); experiment: broth microdilution MIC/MBC; type: cell-based; settings: Staphylococcus aureus, MRSA NRS484 (USA1100); for MBC: read-out: MBC; for MIC: read-out: MIC
# Protocol: as §1
# [6] = tested on: S. aureus NRS107; experiment: broth microdilution MIC/MBC; type: cell-based; settings: Staphylococcus aureus, S. aureus NRS107; for MBC: read-out: MBC; for MIC: read-out: MIC
# Protocol: as §1
# [7] = tested on: VRS10; experiment: broth microdilution MIC/MBC; type: cell-based; settings: Staphylococcus aureus, VRS10, vancomycin-resistant S. aureus; for MBC: read-out: MBC; for MIC: read-out: MIC
# Protocol: as §1
# [8] = tested on: VRS11a; experiment: broth microdilution MIC/MBC; type: cell-based; settings: Staphylococcus aureus, VRS11a, vancomycin-resistant S. aureus; for MBC: read-out: MBC; for MIC: read-out: MIC
# Protocol: as §1
# [9] = tested on: VRS4; experiment: broth microdilution MIC/MBC; type: cell-based; settings: Staphylococcus aureus, VRS4, vancomycin-resistant S. aureus; for MBC: read-out: MBC; for MIC: read-out: MIC
# Protocol: as §1
# [10] = tested on: VRS7; experiment: broth microdilution MIC/MBC; type: cell-based; settings: Staphylococcus aureus, VRS7, vancomycin-resistant S. aureus; for MBC: read-out: MBC; for MIC: read-out: MIC
# Protocol: as §1
# [11] = tested on: human epithelial colorectal (Caco-2) cell line; experiment: MTS cytotoxicity assay; type: cell-based; settings: Caco-2, MTS assay, highest concentration tested
# Protocol: Compounds 1 and 2 were assayed (at concentrations of 16 μg/mL, 32 μg/mL, 64 µg/mL, and 128 μg/mL) against a human epithelial colorectal (Caco-2) cell line (American Type Culture Collection, ATCC HTB-37) using the MTS assay. Cells were cultured in DMEM supplemented with penicillin-streptomycin, nonessential amino acids (1%), and FBS (10%), at 37 °C with CO2 (5%). The cells were incubated with compounds (in triplicate) or DMSO (negative control) in a 96-well tissue culture-treated plate at 37 °C with CO2 (5%) for two hours. The MTS assay reagent (Promega, Madison, WI, USA) was subsequently added to each well and plates were incubated for four hours at 37 °C with CO2 (5%). The quantity of viable cells (at OD490) after treatment was expressed as a percentage of the viability of DMSO-treated control cells (average of triplicate wells ± standard deviation). The toxicity data was analyzed via a two-way ANOVA, with post hoc Dunnet’s multiple comparisons test (n = 3, P < 0.05), utilizing GraphPad Prism 6.0 (GraphPad Software, La Jolla, CA).
# [12] = tested on: MRSA USA400 (NRS123); experiment: multi-step resistance selection; type: cell-based, Staphylococcus aureus; settings: for increase in MIC after fourteen passages: MRSA USA400 (NRS123), fourteen passages over two weeks
# Protocol: To assess MRSA’s ability to develop resistance to the diphenylurea compounds after repeated exposure, a multi-step resistance selection experiment was conducted. […] Resistance was classified as a greater than four-fold increase in the initial MIC, as reported elsewhere.
# [13] = tested on: S. epidermidis NRS101 biofilm; experiment: bacterial CFU inside mature biofilm post-treatment; type: cell-based, Staphylococcus epidermidis; settings: 24 hours
# Protocol: Compounds 1, 2, and vancomycin were examined for their ability to eradicate mature staphylococcal biofilm using the microtiter dish biofilm formation assay. S. epidermidis NRS101 and S. aureus ATCC 6538 were selected as the test organisms given their ability to form strong adherent biofilm. An overnight culture of bacteria was diluted (1:100 in TSB + 1% glucose) and transferred to a 96-well plate. The plate was incubated for 24 hours at 37 °C in order to form adherent biofilm on the surface of the plate wells. The medium containing the bacterial suspension was removed and the biofilm was washed with sterile PBS to remove planktonic cells. Compounds 1, 2, or vancomycin (from 128 to 1 μg/mL), in triplicate, in TSB were incubated with the biofilm for 24 hours at 37 °C.
# For enumeration of viable CFU inside the biofilm, compounds were removed, wells were washed with sterile PBS, and treated with 0.25% Trypsin-2.21 mM EDTA solution as described elsewhere. The solution containing cells was transferred to a 96-well plate, serially diluted in PBS, and plated on TSA. Plates were incubated at 37 °C for 19 hours before viable CFU were counted. Data are presented as average log10(CFU/mL) of bacteria present in the biofilm post-treatment.
# [14] = tested on: MRSA USA400 (NRS123); experiment: MIC in presence and absence of human serum albumin; type: cell-based, Staphylococcus aureus; settings: for increase in MIC in the presence of HSA: MRSA USA400, 4% human serum albumin vs none; for MIC: Staphylococcus aureus, TSB
# Protocol: The broth microdilution assay presented above was used to assess if compounds 1 and 2 bind to a major component of blood (human serum albumin) thus limiting the free fraction of drug available to exert its antibacterial effect. […] CaCl2 ([…]) was added to wells containing daptomycin, per the CLSI guidelines.
# [15] = tested on: human keratinocyte cell line; set-up: method as in PMID 28249208; settings: human keratinocytes; ref [21]; cited from earlier work
# [16] = set-up: method as in PMID 28249208; settings: human liver microsomes; ref [21]; cited from earlier work
# [17] = 4% human serum albumin, read-out: MIC vs. MRSA USA400 (+HSA)
# [18] = without human serum albumin, read-out: MIC vs. MRSA USA400 (-HSA)
SMILES,MBC [1] [µg/mL],MIC [1] [µg/mL],MBC [2] [µg/mL],MIC [2] [µg/mL],MBC [3] [µg/mL],MIC [3] [µg/mL],MBC [4] [µg/mL],MIC [4] [µg/mL],MBC [5] [µg/mL],MIC [5] [µg/mL],MBC [6] [µg/mL],MIC [6] [µg/mL],MBC [7] [µg/mL],MIC [7] [µg/mL],MBC [8] [µg/mL],MIC [8] [µg/mL],MBC [9] [µg/mL],MIC [9] [µg/mL],MBC [10] [µg/mL],MIC [10] [µg/mL],also measured
C/C(=N\NC(=N)N)c1ccc(NC(=O)Nc2ccc(OC3CCCCCC3)cc2)cc1 [compound 2],8,8,16,8,16,8,16,16,16,16,8,8,8,4,8,8,16,16,16,16,"non-toxic up to (concentration) [11]: ≥ 128 µg/mL; increase in MIC after fourteen passages [12]: No increase; reduction in bacterial CFU within S. epidermidis biofilm ([13]; all concentrations tested (from 8 to 128 μg/mL)): unable to reduce; increase in MIC in the presence of HSA [14]: 15 fold; MIC [14, 17]: 128 µg/mL; MIC [14, 18]: 8 µg/mL; non-toxic up to (concentration) [15]: 64 µg/mL; intrinsic half-life [16]: exceeded four hours"
C/C(=N\NC(=N)N)c1ccc(NC(=O)Nc2ccc(OCCC(C)C)cc2)cc1 [compound 1],4,4,4,4,4,4,4,4,8,8,4,4,4,4,4,4,8,8,8,8,"non-toxic up to (concentration) [11]: ≥ 128 µg/mL; increase in MIC after fourteen passages [12]: No increase; MIC ([12]; Staphylococcus aureus, read-out: initial MIC): 8 µg/mL; reduction in bacterial CFU within S. epidermidis biofilm ([13]; 64 μg/mL): 1.0 log10; reduction in bacterial CFU within S. epidermidis biofilm ([13]; 128 μg/mL): 2.84 log10; reduction in bacterial CFU within S. epidermidis biofilm ([13]; 8, 16, and 32 μg/mL, vs untreated control): no reduction; increase in MIC in the presence of HSA [14]: seven-fold; MIC [14, 17]: 32 µg/mL; MIC [14, 18]: 4 µg/mL; non-toxic up to (concentration) [15]: 32 µg/mL; intrinsic half-life [16]: exceeded four hours"
